Reference: PubChem BioAssay AID624009 (Vanderbilt Specialized Chemistry Center, 2012)
Calls of active or inactive are those of the source. How the calls were made is not given here.

Molecular target: Phospholipase D2 (Homo sapiens) + Phospholipase D2 (Homo sapiens) (UniProt O14939+O14939)
Assay: cellular PLD2 inhibitors, cell-based, HEK293 overexpressing PLD2, Lib32, assay 1B (AID 624009)
Conditions: HEK293 cells overexpressing PLD2, cellular PLD activity; active compounds read low; concentration not given here

Chain of Phospholipase D2 (Homo sapiens) + Phospholipase D2 (Homo sapiens) (O14939 whole entry, looked up): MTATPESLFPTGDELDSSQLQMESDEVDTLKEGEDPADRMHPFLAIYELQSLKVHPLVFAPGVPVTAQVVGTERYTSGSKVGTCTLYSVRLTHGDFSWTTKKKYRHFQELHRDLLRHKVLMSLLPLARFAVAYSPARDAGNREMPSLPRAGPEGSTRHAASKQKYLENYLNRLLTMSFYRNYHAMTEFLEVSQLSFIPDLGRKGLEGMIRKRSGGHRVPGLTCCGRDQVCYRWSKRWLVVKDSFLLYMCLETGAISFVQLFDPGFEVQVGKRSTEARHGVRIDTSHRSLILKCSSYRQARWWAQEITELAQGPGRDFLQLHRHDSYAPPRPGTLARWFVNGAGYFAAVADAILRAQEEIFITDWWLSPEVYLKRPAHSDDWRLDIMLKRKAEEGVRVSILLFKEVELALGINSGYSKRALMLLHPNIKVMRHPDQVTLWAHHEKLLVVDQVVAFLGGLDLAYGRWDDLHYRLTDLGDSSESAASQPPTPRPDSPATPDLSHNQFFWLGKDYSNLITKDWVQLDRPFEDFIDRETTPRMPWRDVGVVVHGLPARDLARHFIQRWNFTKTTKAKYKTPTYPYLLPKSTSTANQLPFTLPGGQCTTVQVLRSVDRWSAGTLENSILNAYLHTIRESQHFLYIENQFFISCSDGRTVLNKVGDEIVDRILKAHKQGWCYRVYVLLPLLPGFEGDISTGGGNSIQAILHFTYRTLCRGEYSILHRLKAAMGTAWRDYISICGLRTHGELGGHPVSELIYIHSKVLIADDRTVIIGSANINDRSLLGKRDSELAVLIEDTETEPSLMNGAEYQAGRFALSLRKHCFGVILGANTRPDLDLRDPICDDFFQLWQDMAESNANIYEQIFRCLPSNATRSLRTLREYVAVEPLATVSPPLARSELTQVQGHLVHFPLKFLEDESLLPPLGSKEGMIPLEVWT
Chain of Phospholipase D2 (Homo sapiens) + Phospholipase D2 (Homo sapiens) (O14939 whole entry, looked up): as above

Question: With `C[C@@H](CN1CCC2(CC1)C(=O)NCN2c1cccc(F)c1)NC(=O)c1c(F)ccc(F)c1Cl` as the compound, how does the remaining activity read?
Answer: 94.8% (inactive)

Question: Which remaining activity does the source give for `O=C(NCCN1CCC2(CC1)C(=O)NCN2c1cccc(F)c1)c1ccc(F)cc1F` here?
Answer: 111% (inactive)

Question: Which remaining activity does the source give for `O=C(NCCN1CCC2(CC1)C(=O)NCN2c1cccc(F)c1)c1ccc(Br)cc1` here?
Answer: 39.2%

Question: With `C[C@@H](CN1CCC2(CC1)C(=O)NCN2c1cccc(F)c1)NC(=O)c1cccc(F)c1` as the compound, how does the remaining activity read?
Answer: 53.3%

Question: Which remaining activity does the source give for `O=C(NCCN1CCC2(CC1)C(=O)NCN2c1cccc(F)c1)c1cccc(C(F)(F)F)c1` here?
Answer: 107% (inactive)

Question: With `C[C@@H](CN1CCC2(CC1)C(=O)NCN2c1cccc(F)c1)NC(=O)c1cccc([N+](=O)[O-])c1` as the compound, how does the remaining activity read?
Answer: 74.9% (inactive)

Question: Which remaining activity does the source give for `O=C(NCCN1CCC2(CC1)C(=O)NCN2c1cccc(F)c1)c1ccc(Cl)cc1Cl` here?
Answer: 116% (inactive)

Question: `O=C(NCCN1CCC2(CC1)C(=O)NCN2c1cccc(F)c1)c1ccccc1I` was tested. Which remaining activity did it give?
Answer: 111% (inactive)

Question: With `O=C(c1ccc(F)cc1)N(CCN1CCC2(CC1)C(=O)NCN2c1cccc(F)c1)C(=O)c1ccc(F)cc1` as the compound, how does the remaining activity read?
Answer: 102% (inactive)

Question: Which remaining activity does the source give for `O=C(NCCN1CCC2(CC1)C(=O)NCN2c1cccc(F)c1)c1ccccn1` here?
Answer: 99.8% (inactive)

Question: With `C[C@@H](CN1CCC2(CC1)C(=O)NCN2c1cccc(F)c1)NC(=O)c1ccccc1I` as the compound, how does the remaining activity read?
Answer: 79.4% (inactive)

Question: How did the remaining activity turn out when `O=C(Cc1ccc(F)cc1)NCCN1CCC2(CC1)C(=O)NCN2c1cccc(F)c1` was run?
Answer: 92.5% (inactive)

Question: Which remaining activity does the source give for `C[C@@H](CN1CCC2(CC1)C(=O)NCN2c1cccc(F)c1)NC(=O)c1ccc(F)cc1` here?
Answer: 33.3%

Question: How did the remaining activity turn out when `C[C@@H](CN1CCC2(CC1)C(=O)NCN2c1cccc(F)c1)NC(=O)c1ccc(Cl)cc1Cl` was run?
Answer: 81.5% (inactive)

Question: With `O=C(NCCN1CCC2(CC1)C(=O)NCN2c1cccc(F)c1)c1cccc2c1OCO2` as the compound, how does the remaining activity read?
Answer: 83.3% (inactive)

Question: How did the remaining activity turn out when `O=C(NCCN1CCC2(CC1)C(=O)NCN2c1cccc(F)c1)c1cccc2ccccc12` was run?
Answer: 96.3% (inactive)

Question: Which remaining activity does the source give for `C[C@@H](CN1CCC2(CC1)C(=O)NCN2c1cccc(F)c1)NC(=O)c1ccc(F)c(F)c1` here?
Answer: 22.8%

Question: `COc1cc(C(=O)NCCN2CCC3(CC2)C(=O)NCN3c2cccc(F)c2)cc(OC)c1OC` was tested. Which remaining activity did it give?
Answer: 46.7%

Question: How did the remaining activity turn out when `C[C@@H](CN1CCC2(CC1)C(=O)NCN2c1cccc(F)c1)NC(=O)c1c(F)cccc1F` was run?
Answer: 106% (inactive)

Question: How did the remaining activity turn out when `C[C@@H](CN1CCC2(CC1)C(=O)NCN2c1cccc(F)c1)NC(=O)c1ccc(F)cc1F` was run?
Answer: 48.2%

Question: With `C[C@@H](CN1CCC2(CC1)C(=O)NCN2c1cccc(F)c1)NC(=O)c1cccc(C(F)(F)F)c1` as the compound, how does the remaining activity read?
Answer: 68.8% (inactive)

Question: `C[C@@H](CN1CCC2(CC1)C(=O)NCN2c1cccc(F)c1)NC(=O)c1ccc(Br)cc1` was tested. Which remaining activity did it give?
Answer: 26.6%

Question: With `O=C(NCCN1CCC2(CC1)C(=O)NCN2c1cccc(F)c1)c1c(F)ccc(F)c1Cl` as the compound, how does the remaining activity read?
Answer: 85% (inactive)

Question: With `COc1cc(C(=O)N[C@@H](C)CN2CCC3(CC2)C(=O)NCN3c2cccc(F)c2)cc(OC)c1OC` as the compound, how does the remaining activity read?
Answer: 34.8%

Question: With `O=C(NCCN1CCC2(CC1)C(=O)NCN2c1cccc(F)c1)c1ccc(F)cc1` as the compound, how does the remaining activity read?
Answer: 59.4%

Question: `O=C(NCCN1CCC2(CC1)C(=O)NCN2c1cccc(F)c1)c1cccc([N+](=O)[O-])c1` was tested. Which remaining activity did it give?
Answer: 71% (inactive)

Question: For `C[C@@H](CN1CCC2(CC1)C(=O)NCN2c1cccc(F)c1)NC(=O)Cc1ccc(F)cc1`, which remaining activity is on record?
Answer: 91.1% (inactive)

Question: With `C[C@@H](CN1CCC2(CC1)C(=O)NCN2c1cccc(F)c1)NC(=O)c1cccc2ccccc12` as the compound, how does the remaining activity read?
Answer: 81% (inactive)
